The subject of the experiment is ileal microbial metabolism. Kind of experiment: Broiler ileal simulation in vitro, SCFA production. The class given is cell-based, broilers.

Like-named read-outs stand apart in the source and are kept apart here.

Consider `C=C(C)[C@@H]1CC[C@]2(CO)CC[C@]3(C)[C@H](CC[C@@H]4[C@@]5(C)CC[C@H](O)C(C)(C)[C@@H]5CC[C@]43C)[C@@H]12` [fraction C, betulinol], for which the “total production of short chain fatty acids (SCFA)” value is listed as “increased”.

In the case of `CC[C@@H](C(=O)O)[C@@H]1O[C@@H]([C@@H](C)[C@H](O)[C@H](C)C(=O)[C@H](CC)[C@H]2O[C@]3(C=C[C@@H](O)[C@]4(CC[C@@](C)([C@H]5CC[C@](O)(CC)[C@H](C)O5)O4)O3)[C@H](C)C[C@@H]2C)[C@@H](C)C[C@@H]1C` [Narasin], the “total production of short chain fatty acids (SCFA)” value (ileal simulation, 12 hours (FIG. 6)) is “decreased”.

Source of the values: patent publication US20110212218A1, “Method for modulating animal digestive tract microbiota and feed composition comprising bark extract” (UPM-KYMMENE CORPORATION, priority 2009, published 2011).
